Test results reported in patent publication US8853258B2, “C-linked hydroxamic acid derivatives useful as antibacterial agents” (Pfizer Inc., priority 2009, dated 2014).
Values after ≈ are worked out from the molar mass of the structure shown. Like-named read-outs stand apart in the source and are kept apart here.

Assays:
Type in all cases: cell-based
[1] = system: Pseudomonas aeruginosa UI-18: Wild-type (PA-7); assay: MIC determination (CLSI), PA-7; conditions: for MIC: Pseudomonas aeruginosa
Outline: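 MIC by dilution method per CLSI M7-A7 and M100-S18 guidelines. Strain: wild-type Pseudomonas aeruginosa UI-18.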

[2] = system: Klebsiella pneumoniae: Ciprofloxacin-resistant isolate, ESBL, clinical isolate (KP-3700); assay: MIC determination (CLSI), KP-3700
Outline: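 MIC measured by broth dilution according to CLSI M7-A7 and M100-S18 standards. Test organism was a ciprofloxacin-resistant, ESBL-expressing clinical isolate.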

[3] = system: Acinetobacter baumanii/haemolyticus: Multidrug-resistant clinical isolate (AB-3167); assay: MIC determination (CLSI), AB-3167; conditions: for MIC: Acinetobacter baumannii
Outline: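 Multidrug-resistant clinical isolate AB-3167 (A. baumannii/haemolyticus) tested for minimum inhibitory concentration following CLSI dilution susceptibility standards M7-A7 and M100-S18.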

[4] = system: Escherichia coli EC-1: VOGEL, mouse virulent; assay: MIC determination (CLSI), EC-1; conditions: for MIC: Escherichia coli
Outline: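 E. coli Vogel, a mouse-virulent strain (EC-1), was tested. MICs were set by dilution susceptibility testing per CLSI standards M7-A7/M100-S18.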

[5] = Pseudomonas aeruginosa UI-18 wild-type PA-7
[6] = Acinetobacter baumanii/haemolyticus multidrug-resistant clinical isolate AB-3167
[7] = Escherichia coli EC-1 VOGEL, mouse virulent
[8] = Table 1, MIC, read-out: PA-7 (MIC)
[9] = Table 1, MIC, read-out: AB-3167 (MIC)

Cc1ccc(-c2ccc(CCC(C)(C(=O)NO)S(C)(=O)=O)cc2)o1 (stereo not shown) [Example 99]
PA-7 MIC [1, 5]: 8 µg/mL
KP-3700 MIC [2]: 32 µg/mL
AB-3167 MIC [3, 6]: ≧64 mg/L
EC-1 MIC [4, 7]: 16 µg/mL

CC(CCc1ccc(-c2ccc(CCO)cc2F)cc1)(C(=O)NO)S(C)(=O)=O (stereo not shown) [Example 155]
PA-7 MIC [1, 5]: 1 µg/mL
KP-3700 MIC [2]: 8 µg/mL
AB-3167 MIC [3, 6]: ≧64 mg/L
EC-1 MIC [4, 7]: 2 µg/mL

CC(CCc1ccc(-c2ccc(C[C@H](N)C(=O)O)cc2)cc1)(C(=O)NO)S(C)(=O)=O (stereo partly shown) [Example 231]
PA-7 MIC ([1]; Pseudomonas aeruginosa UI-18 (PA-7)): 16 µg/mL
KP-3700 MIC [2]: ≧64 mg/L
AB-3167 MIC ([3]; Acinetobacter baumanii/haemolyticus AB-3167): ≧64 mg/L
EC-1 MIC ([4]; Escherichia coli EC-1): 32 µg/mL

CC(CCc1ccc(-n2cc3ccccc3n2)cc1)(C(=O)NO)S(C)(=O)=O (racemic) [Example 22, (+/−)-N-hydroxy-4-[4-(2H-indazol-2-yl)phenyl]-2-methyl-2-(methylsulfonyl)butanamide]
MIC [1, 8]: 4 µg/mL (≈ 10.3 µM)
KP-3700 MIC [2]: 8 µg/mL
MIC [3, 9]: ≥ 64 µg/mL
MIC ([4]; read-out: EC-1: (MIC)): 4 µg/mL (≈ 10.3 µM)

CC(CCc1ccc(-c2ccc(C#N)c(O)c2)cc1)(C(=O)NO)S(C)(=O)=O (stereo not shown) [Example 142]
PA-7 MIC [1, 5]: 32 µg/mL
KP-3700 MIC [2]: ≧64 mg/L
AB-3167 MIC [3, 6]: ≧64 mg/L
EC-1 MIC [4, 7]: ≧64 mg/L

CC(CCc1ccc(-c2cccc(CO)c2)cc1)(C(=O)NO)S(C)(=O)=O (racemic) [Example 84]
PA-7 MIC [1, 5]: 16 µg/mL
KP-3700 MIC [2]: ≧64 mg/L
AB-3167 MIC [3, 6]: ≧64 mg/L
EC-1 MIC [4, 7]: ≧64 mg/L

CC(CCc1ccc(-n2cccn2)cc1)(C(=O)NO)S(C)(=O)=O (stereo not shown) [Example 11, N-Hydroxy-2-methyl-2-(methylsulfonyl)-4-[4-(1H-pyrazol-1-yl)phenyl]butanamide]
MIC [1, 8]: 16 µg/mL (≈ 47.4 µM)
KP-3700 MIC [2]: ≧64 mg/L
MIC [3, 9]: ≥ 64 µg/mL
MIC ([4]; read-out: EC-1: (MIC)): ≥ 64 µg/mL

CC(CCc1ccc(OCc2cc(C#N)ccc2F)cc1)(C(=O)NO)S(C)(=O)=O (stereo not shown) [Example 275, 4-{4-[(5-cyano-2-fluorobenzyl)oxy]phenyl}-N-hydroxy-2-methyl-2-(methylsulfonyl)butanamide]
MIC ([1]; Table 3, read-out: PA-7 MIC): 32 µg/mL (≈ 76.1 µM)
KP-3700 MIC [2]: ≧64 mg/L
MIC ([3]; Table 3, read-out: AB-3167 MIC): ≥ 64 µg/mL
MIC ([4]; read-out: EC-1 MIC): ≥ 64 µg/mL

CSc1ccccc1-c1ccc(CCC(C)(C(=O)NO)S(C)(=O)=O)cc1 (stereo not shown) [Example 94]
PA-7 MIC [1, 5]: 32 µg/mL
KP-3700 MIC [2]: ≧64 mg/L
AB-3167 MIC [3, 6]: ≧64 mg/L
EC-1 MIC [4, 7]: 32 µg/mL

CC(CCc1ccc(-c2ccc(O)cc2F)cc1)(C(=O)NO)S(C)(=O)=O (stereo not shown) [Example 149]
PA-7 MIC [1, 5]: 1 µg/mL
KP-3700 MIC [2]: 8 µg/mL
AB-3167 MIC [3, 6]: ≧64 mg/L
EC-1 MIC [4, 7]: 2 µg/mL

CC(C)c1ccc(-c2ccc(CCC(C)(C(=O)NO)S(C)(=O)=O)cc2)cc1 (stereo not shown) [Example 102]
PA-7 MIC [1, 5]: 4 µg/mL
KP-3700 MIC [2]: 8 µg/mL
AB-3167 MIC [3, 6]: 4 µg/mL
EC-1 MIC [4, 7]: 2 µg/mL

CC(CCc1ccc(OCc2ccc(F)cc2C(F)(F)F)cc1)(C(=O)NO)S(C)(=O)=O (stereo not shown) [Example 249, 4-(4-{[4-fluoro-2-(trifluoromethyl)benzyl]oxy}phenyl)-N-hydroxy-2-methyl-2-(methylsulfonyl)butanamide]
MIC ([1]; Table 3, read-out: PA-7 MIC): 16 µg/mL (≈ 34.5 µM)
KP-3700 MIC [2]: ≧64 mg/L
MIC ([3]; Table 3, read-out: AB-3167 MIC): 16 µg/mL (≈ 34.5 µM)
MIC ([4]; read-out: EC-1 MIC): 16 µg/mL (≈ 34.5 µM)

CC(CCc1ccc(-c2ccc(CN)cc2)cc1)(C(=O)NO)S(C)(=O)=O (stereo not shown) [Example 111]
PA-7 MIC [1, 5]: 32 µg/mL
KP-3700 MIC [2]: ≧64 mg/L
AB-3167 MIC [3, 6]: ≧64 mg/L
EC-1 MIC [4, 7]: ≧64 mg/L

CC(CCc1ccc(Br)cc1)(C(=O)NO)S(C)(=O)=O (stereo not shown) [Example 32]
PA-7 MIC [1, 5]: 32 µg/mL
KP-3700 MIC [2]: ≧64 mg/L
AB-3167 MIC [3, 6]: ≧64 mg/L
EC-1 MIC [4, 7]: 32 µg/mL

CC(CCc1ccc(OCc2nc3ccccc3s2)cc1)(C(=O)NO)S(C)(=O)=O (stereo not shown) [Example 277, 4-[4-(1,3-benzothiazol-2-ylmethoxy)phenyl]-N-hydroxy-2-methyl-2-(methylsulfonyl)butanamide]
MIC ([1]; Table 3, read-out: PA-7 MIC): 32 µg/mL (≈ 73.6 µM)
KP-3700 MIC [2]: 16 µg/mL
MIC ([3]; Table 3, read-out: AB-3167 MIC): ≥ 64 µg/mL
MIC ([4]; read-out: EC-1 MIC): 4 µg/mL (≈ 9.21 µM)

Cc1cccc(-c2ccc(CCC(C)(C(=O)NO)S(C)(=O)=O)cc2)c1 (racemic) [Example 87]
PA-7 MIC [1, 5]: 1 µg/mL
KP-3700 MIC [2]: 4 µg/mL
AB-3167 MIC [3, 6]: 8 µg/mL
EC-1 MIC [4, 7]: 2 µg/mL

CC(CCc1ccc(-c2ccccc2C#N)cc1)(C(=O)NO)S(C)(=O)=O (stereo not shown) [Example 105]
PA-7 MIC [1, 5]: 16 µg/mL
KP-3700 MIC [2]: 32 µg/mL
AB-3167 MIC [3, 6]: ≧64 mg/L
EC-1 MIC [4, 7]: 8 µg/mL

CC(C)(O)Cc1ccc(-c2ccc(CCC(C)(C(=O)NO)S(C)(=O)=O)cc2)cc1 (stereo not shown) [Example 146]
PA-7 MIC [1, 5]: 8 µg/mL
KP-3700 MIC [2]: 32 µg/mL
AB-3167 MIC [3, 6]: ≧64 mg/L
EC-1 MIC [4, 7]: 8 µg/mL

CC(CCc1ccc(-c2ccc(OCCCN)cc2)cc1)(C(=O)NO)S(C)(=O)=O (stereo not shown) [Example 117]
PA-7 MIC [1, 5]: 8 µg/mL
KP-3700 MIC [2]: ≧64 mg/L
AB-3167 MIC [3, 6]: ≧64 mg/L
EC-1 MIC [4, 7]: ≧64 mg/L

CC(CCc1ccc(-c2ccc(C#N)c(F)c2)cc1)(C(=O)NO)S(C)(=O)=O (stereo not shown) [Example 45]
PA-7 MIC [1, 5]: 1 µg/mL
KP-3700 MIC [2]: 4 µg/mL
AB-3167 MIC [3, 6]: ≧64 mg/L
EC-1 MIC [4, 7]: 0.5 µg/mL

CC(CCc1ccc(OCc2cccc(Cl)c2)cc1)(C(=O)NO)S(C)(=O)=O (stereo not shown) [Example 250, 4-{4-[(3-chlorobenzyl)oxy]phenyl}-N-hydroxy-2-methyl-2-(methylsulfonyl)butanamide]
MIC ([1]; Table 3, read-out: PA-7 MIC): 4 µg/mL (≈ 9.71 µM)
KP-3700 MIC [2]: 8 µg/mL
MIC ([3]; Table 3, read-out: AB-3167 MIC): 4 µg/mL (≈ 9.71 µM)
MIC ([4]; read-out: EC-1 MIC): 2 µg/mL (≈ 4.86 µM)

CC(CCc1ccc(-c2ccoc2)cc1)(C(=O)NO)S(C)(=O)=O (stereo not shown) [Example 95]
PA-7 MIC [1, 5]: 4 µg/mL
KP-3700 MIC [2]: 16 µg/mL
AB-3167 MIC [3, 6]: ≧64 mg/L
EC-1 MIC [4, 7]: 16 µg/mL

COc1ccc(-c2ccc(CCC(C)(C(=O)NO)S(C)(=O)=O)cc2)cc1C (racemic) [Example 67]
PA-7 MIC [1, 5]: 16 µg/mL
KP-3700 MIC [2]: 8 µg/mL
AB-3167 MIC [3, 6]: ≧64 mg/L
EC-1 MIC [4, 7]: 4 µg/mL

CC(CCc1ccc(-c2ccc(F)c(F)c2)cc1)(C(=O)NO)S(C)(=O)=O (racemic) [Example 75]
PA-7 MIC [1, 5]: 0.5 µg/mL
KP-3700 MIC [2]: 4 µg/mL
AB-3167 MIC [3, 6]: 8 µg/mL
EC-1 MIC [4, 7]: 1 µg/mL

CS(=O)(=O)C(CCc1ccc(-c2ccc(C#N)cc2)cc1)C(=O)NO (stereo not shown) [Example 28]
PA-7 MIC [1, 5]: 2 µg/mL
KP-3700 MIC [2]: ≧64 mg/L
AB-3167 MIC [3, 6]: ≧64 mg/L
EC-1 MIC [4, 7]: 32 µg/mL

CC(CCc1ccc(-c2ccccc2O)nc1)(C(=O)NO)S(C)(=O)=O (stereo not shown) [Example 143]
PA-7 MIC [1, 5]: 4 µg/mL
KP-3700 MIC [2]: 32 µg/mL
AB-3167 MIC [3, 6]: ≧64 mg/L
EC-1 MIC [4, 7]: 4 µg/mL

CC(CCc1ccc(OC2CCCC2)cc1)(C(=O)NO)S(C)(=O)=O (racemic) [Example 15, (+/−)-4-[4-(Cyclopentyloxy)phenyl]-N-hydroxy-2-methyl-2-(methylsulfonyl)butanamide]
MIC [1, 8]: 4 µg/mL (≈ 11.3 µM)
KP-3700 MIC [2]: ≧64 mg/L
MIC [3, 9]: 32 µg/mL (≈ 90 µM)
MIC ([4]; read-out: EC-1: (MIC)): 16 µg/mL (≈ 45 µM)

CC(CCc1ccc(OCc2ccncc2)cc1)(C(=O)NO)S(C)(=O)=O (stereo not shown) [Example 316, N-hydroxy-2-methyl-2-(methylsulfonyl)-4-[4-(pyridin-4-ylmethoxy)phenyl]butanamide]
MIC ([1]; Table 3, read-out: PA-7 MIC): 8 µg/mL (≈ 21.1 µM)
KP-3700 MIC [2]: ≧64 mg/L
MIC ([3]; Table 3, read-out: AB-3167 MIC): 16 µg/mL (≈ 42.3 µM)
MIC ([4]; read-out: EC-1 MIC): 32 µg/mL (≈ 84.6 µM)
